Data from patent US12344611B2, “Bridged cycloformylpyridine derivatives and uses thereof” (BroadenBio Co., Ltd., priority 2019, dated 2025).

How the values were obtained:
FGFR4 = FGFR4 (Homo sapiens, UniProt P22455); experiment: In vitro biochemical kinase analysis of FGFR4 (HTRF KinEASE-TK); details: HTRF kinase assay
Procedure: In Vitro Biochemical Kinase Analysis of FGFR4
FGFR4 protein kinase detection kit was purchased from Cisbio (HTRF KinEASE-TK kit). Prepare 1× kinase reaction buffer. Transfer 10 nL of a diluted compound to each well of a reaction plate (784075, Greiner) with an Echo 550, and seal the plate with sealing film. The reaction plate was centrifuged at 1000 g for 1 minute. Prepare 2×FGFR4 using 1× kinase reaction buffer, add 5 μL of kinase to each well of the reaction plate, seal the plate, centrifuge at 1000 g for 30 seconds, and incubate it at room temperature for 10 minutes. Prepare a mixture of 2×TK-substrate-biotin and ATP using 1× kinase reaction buffer, add 5 μL of TK-substrate-biotin/ATP mixture to the reaction plate, seal the plate with sealing film, centrifuge at 1000 g for 30 seconds, and react at room temperature for 40 minutes. Prepare 2×Sa-XL 665 and TK-antibody-Cryptate mixture using HTRF detection buffer, add 10 μL Sa-XL 665 and TK-antibody-Cryptate mixture to each well, centrifuge at 1000 g for 30 seconds, and react at room temperature for 1 hour. Envision 2104 read fluorescence signals at 615 nm (Cryptate) and at 665 nm (XL665). IC50 of the compound was calculated using the GraphPad nonlinear fitting formula.

Hep 3B hepatoma cells = experiment: In vitro cell proliferation assay (CellTiter-Glo, CTG), Hep 3B; format: cell-based, human; details: Hep 3B cells
Procedure: (§1) In Vitro Cell Proliferation Assay of FGFR4 (CellTiter-Glo Luminescent Cell Viability Assay, CTG Assay)
(§2) Hep 3B hepatoma cells were purchased from Cell Resource Center of Peking Union College, and HuH-7 hepatoma cells were purchased from Shanghai Biological Technology Co., Ltd. enzyme research. The cells were prepared at a concentration of 3×10^4/mL, which was then added with 100 μL to each well of a 96-well transparent flat-bottom black-walled plate to make 3000 cells per well. Incubate overnight at 37° C. in 5% CO2 incubator. Dilute a compound and add it to the wells having the cells, then add cell culture medium to 200 μL per well. Put in CO2 incubator for incubation. After 96 hours, 100 μL of culture medium was removed from each well, 100 μL of CTG was added, and the 96-well plate was placed on a shaker for 10 minutes, and placed in the shade at room temperature for 45 minutes. Data was read out by SoftMax Pro i3X Microplate Reader of MD, analyzed by the software GraphPad Prism 5.0, and S-shaped dose-response curve was drawn, then the EC50 values were calculated.

HuH-7 hepatoma cells = experiment: In vitro cell proliferation assay (CellTiter-Glo, CTG), HuH-7; format: cell-based; details: HuH-7 cells
Procedure: as §1, §2

Chain of FGFR4 (P22455 22-802): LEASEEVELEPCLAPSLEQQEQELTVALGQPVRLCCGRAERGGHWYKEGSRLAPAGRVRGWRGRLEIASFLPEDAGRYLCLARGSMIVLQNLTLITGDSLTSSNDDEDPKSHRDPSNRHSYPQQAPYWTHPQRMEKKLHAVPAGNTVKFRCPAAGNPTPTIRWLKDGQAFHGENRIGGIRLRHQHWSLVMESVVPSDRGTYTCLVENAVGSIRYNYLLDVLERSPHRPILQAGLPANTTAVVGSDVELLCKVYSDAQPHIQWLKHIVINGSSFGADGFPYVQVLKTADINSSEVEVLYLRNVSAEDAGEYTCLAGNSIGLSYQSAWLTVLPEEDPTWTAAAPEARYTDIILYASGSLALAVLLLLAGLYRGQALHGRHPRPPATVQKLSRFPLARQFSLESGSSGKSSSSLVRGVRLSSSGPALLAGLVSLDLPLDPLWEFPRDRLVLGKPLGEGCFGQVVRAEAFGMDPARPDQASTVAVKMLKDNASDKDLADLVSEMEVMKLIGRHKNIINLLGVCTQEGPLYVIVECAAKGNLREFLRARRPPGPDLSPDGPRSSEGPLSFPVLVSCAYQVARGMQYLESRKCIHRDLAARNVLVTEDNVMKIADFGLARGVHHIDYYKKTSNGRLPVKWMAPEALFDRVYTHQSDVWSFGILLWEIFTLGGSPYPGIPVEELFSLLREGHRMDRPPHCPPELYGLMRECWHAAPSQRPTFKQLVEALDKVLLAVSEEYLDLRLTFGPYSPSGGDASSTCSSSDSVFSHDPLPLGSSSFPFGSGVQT

IC50 (FGFR4) [nM]	EC50 (Hep 3B hepatoma cells; Homo sapiens, Hep3B, 96 h) [nM]	EC50 (HuH-7 hepatoma cells; Homo sapiens, Huh-7, 96 h) [nM]	EC50 (Hep 3B hepatoma cells; 96 hours) [nM]	EC50 (HuH-7 hepatoma cells; 96 hours) [nM]	Structure (SMILES)
1.2	10.7				COCCNc1cc(NC(=O)N2c3nc(C=O)ccc3C3(N(C)C4CCOC4)CC2C3)ncc1C#N (stereo not shown) [Compound 34, N-(5-cyano-4-((2-methoxyethyl)amino)pyridin-2-yl)-4-(methyl(tetrahydrofuran-3-yl)amino)-7-formyl-3,4-dihydro-2,4-methylene-1,8-naphthyridine-1(2H)-carboxamide]
1.1	2.2				COCCNc1cc(NC(=O)N2c3nc(C=O)ccc3C3(OCCN4CCCC4)CC2C3)ncc1C#N [Compound 35, N-(5-cyano-4-((2-methoxyethyl)amino)pyridin-2-yl)-4-(2-(pyrrolidin-1-yl)ethoxy)-7-formyl-3,4-dihydro-2,4-methylene-1,8-naphthyridine-1(2H)-carboxamide]
2.5	6.4				CCC(=O)NC12CC(C1)N(C(=O)Nc1cc(NCCOC)c(C#N)cn1)c1nc(C=O)ccc12 [Compound 37, N-(5-cyano-4-((2-methoxyethyl)amino)pyridin-2-yl)-4-propionamido-7-formyl-3,4-dihydro-2,4-methylene-1,8-naphthyridine-1(2H)-carboxamide]
3.2	7.2				COCCNc1cc(NC(=O)N2c3nc(C=O)ccc3C3(N(C)C(=O)c4cnn(C)c4)CC2C3)ncc1C#N [Compound 42]
3.1	6.5				COCCNc1cc(NC(=O)N2c3nc(C=O)ccc3C3(N4CCN(C)CC4=O)CC2C3)ncc1C#N [Compound 43, N-(5-cyano-4-((2-methoxyethyl)amino)pyridin-2-yl)-7-formyl-4-(4-methyl-2-oxopiperazin-1-yl)-3,4-dihydro-2,4-methylene-1,8-naphthyridine-1(2H)-carboxamide]
2.5	12.3				COCCNc1cc(NC(=O)N2c3nc(C=O)ccc3C3(NC(=O)N4CCOCC4)CC2C3)ncc1C#N [Compound 44, N-(5-cyano-4-((2-methoxyethyl)amino)pyridin-2-yl)-7-formyl-4-(morpholine-4-carboxamido)-3,4-dihydro-2,4-methylene-1,8-naphthyridine-1(2H)-carboxamide]
1.8	11.4				COCCNc1cc(NC(=O)N2c3nc(C=O)ccc3C3(OCC(=O)N4CCOCC4)CC2C3)ncc1C#N [Compound 45, N-(5-cyano-4-((2-methoxyethyl)amino)pyridin-2-yl)-4-(2-(morpholin-4-yl)-2-oxoethoxy)-7-formyl-3,4-dihydro-2,4-methylene-1,8-naphthyridine-1(2H)-carboxamide]
2.8	17.8				COCCNc1cc(NC(=O)N2c3nc(C=O)ccc3C3(NC(=O)CO)CC2C3)ncc1C#N [Compound 47, N-(5-cyano-4-((2-methoxyethyl)amino)pyridin-2-yl)-4-(2-hydroxyacetamido)-7-formyl-3,4-dihydro-2,4-methylene-1,8-naphthyridine-1(2H)-carboxamide]
1.6					COCCNc1cc(NC(=O)N2c3nc(C=O)ccc3C3(NC(=O)c4ccccn4)CC2C3)ncc1C#N [Compound 48, N-(5-cyano-4-((2-methoxyethyl)amino)pyridin-2-yl)-4-(pyridine-2-carboxamido)-7-formyl-3,4-dihydro-2,4-methylene-1,8-naphthyridine-1(2H)-carboxamide]
1.6					COCCNc1cc(NC(=O)N2c3nc(C=O)ccc3C3(NC(=O)c4ccc[nH]4)CC2C3)ncc1C#N [Compound 49]
	15	52			COCCNc1cc(NC(=O)N2CCCc3cc(CN4CCN(C)CC4=O)c(C=O)nc32)ncc1C#N [Positive Control Compound, N-(5-cyano-4-((2-methoxyethyl)amino)pyridin-2-yl)-7-formyl-6-((4-methyl-2-oxopiperazin-1-yl)methyl)-3,4-dihydro-1,8-naphthyridine-1(2H)-carboxamide, reference compound]

Second part, the compound before the results:

Structure (SMILES)	IC50 (FGFR4) [nM]	EC50 (Hep 3B hepatoma cells; Homo sapiens, Hep3B, 96 h) [nM]	EC50 (HuH-7 hepatoma cells; Homo sapiens, Huh-7, 96 h) [nM]	EC50 (Hep 3B hepatoma cells; 96 hours) [nM]	EC50 (HuH-7 hepatoma cells; 96 hours) [nM]
CO[C@@H]1CCC[C@H]1Nc1cc(NC(=O)N2c3nc(C=O)ccc3C3(F)CC2C3)ncc1C#N (relative stereo) [Compound 19, N-(5-cyano-4-(((trans)-2-methoxycyclopentyl)amino)pyridin-2-yl)-4-fluoro-7-formyl-3,4-dihydro-2,4-methylene-1,8-naphthyridine-1(2H)-carboxamide]	0.8	6	31.6		
N#Cc1cnc(NC(=O)N2c3nc(C=O)ccc3C3(F)CC2C3)cc1N[C@@H]1CCC[C@H]1O (relative stereo) [Compound 20, N-(5-cyano-4-(((trans)-2-hydroxycyclopentyl)amino)pyridin-2-yl)-4-fluoro-7-formyl-3,4-dihydro-2,4-methylene-1,8-naphthyridine-1(2H)-carboxamide]	0.6	1.2	24		
CO[C@@H]1CCC[C@H]1Nc1cc(NC(=O)N2c3nc(C=O)c(CN4CCN(C)CC4=O)cc3C3CC2C3)ncc1C#N (relative stereo) [Compound 26, N-(5-cyano-4-(((trans)-2-methoxycyclopentyl)amino)pyridin-2-yl)-7-formyl-6-((4-methyl-2-oxopiperazin-1-yl)methyl)-3,4-dihydro-2,4-methylene-1,8-naphthyridine-1(2H)-carboxamide]	0.3	1.3	1		
CO[C@@H]1CCC[C@H]1Nc1cc(NC(=O)N2c3nc(C=O)ccc3C3(NC(=O)CN(C)C)CC2C3)ncc1C#N (relative stereo) [Compound 33, N-(5-cyano-4-(((trans)-2-methoxycyclopentyl)amino)pyridin-2-yl)-4-(2-(dimethylamino)acetamido)-7-formyl-3,4-dihydro-2,4-methylene-1,8-naphthyridine-1(2H)-carboxamide]	0.3	0.3	0.08		
COC1CCCC1Nc1cc(NC(=O)N2c3nc(C=O)c(CN4CCN(C)CC4=O)cc3C3(F)CC2C3)ncc1C#N (single isomer, unassigned) [Compound 11-P1, N-(5-cyano-4-(((trans)-2-methoxycyclopentyl)amino)pyridin-2-yl)-4-fluoro-7-formyl-64(4-methyl-2-oxopiperazin-1-yl)methyl)-3,4-dihydro-2,4-methylene-1,8-naphthyridine-1(2H)-carboxamide]	1.3			5.6	0.2
COC1CCCC1Nc1cc(NC(=O)N2c3nc(C=O)c(CN4CCN(C)CC4=O)cc3C3(F)CC2C3)ncc1C#N (single isomer, unassigned) [Compound 11-P2, N-(5-cyano-4-(((trans)-2-methoxycyclopentyl)amino)pyridin-2-yl)-4-fluoro-7-formyl-64(4-methyl-2-oxopiperazin-1-yl)methyl)-3,4-dihydro-2,4-methylene-1,8-naphthyridine-1(2H)-carboxamide]	9.8			32.1	73.1
COC1CCCC1Nc1cc(NC(=O)N2c3nc(C=O)c(CN4CCN(C)CC4=O)cc3C3(F)CC2C3)ncc1C#N (single isomer, unassigned) [Compound 12-P1, N-(5-cyano-4-(((cis)-2-methoxycyclopentyl)amino)pyridin-2-yl)-4-fluoro-7-formyl-64(4-methyl-2-oxopiperazin-1-yl)methyl)-3,4-dihydro-2,4-methylene-1,8-naphthyridine-1(2H)-carboxamide]	2.1			8.6	0.9
CN1CCN(Cc2cc3c(nc2C=O)N(C(=O)Nc2cc(NC4CCCC4O)c(C#N)cn2)C2CC3(F)C2)C(=O)C1 (stereo not drawn) [Compound 17, N-(5-cyano-4-(((trans)-2-hydroxycyclopentyl)amino)pyridin-2-yl)-4-fluoro-7-formyl-6-((4-methyl-2-oxopiperazin-1-yl)methyl)-3,4-dihydro-2,4-methylene-1,8-naphthyridine-1(21-1)-carboxamide]	0.7		0.6		
N#Cc1cnc(NC(=O)N2c3nc(C=O)ccc3C3(F)CC2C3)cc1NC1CNC1 [Compound 23, N-(5-cyano-4-(azetidin-3-ylamino)pyridin-2-yl)-7-formyl-4-fluoro-3,4-dihydro-2,4-methylene-1,8-naphthyridine-1(2H)-carboxamide]		102			
COCCNc1cc(NC(=O)N2c3nc(C=O)ccc3C3(NC(=O)CN(C)C)CC2C3)ncc1C#N [Compound 30, N-(5-cyano-4-((2-methoxyethyl)amino)pyridin-2-yl)-4-(2-(dimethylamino)acetamido)-7-formyl-3,4-dihydro-2,4-methylene-1,8-naphthyridine-1(2H)-carboxamide]	1.4		0.8		
